# Read-outs that look alike come from different tables or passages of the source.
# Legend:
# [1] = system: 2-spotted spider mites; experiment: Contact activity on bean leaves against 2-spotted spider mites (Table X); format: in vivo, Tetranychus urticae; conditions: for mortality at 0.015 ppm / mortality at 0.04 ppm / mortality at 0.06 ppm / mortality at 0.25 ppm: Tetranychus urticae
# Experimental: (§1) A solution of Triton X-155 in acetone (1000 ppm) was used to dissolve the material under test and the resultant solution was diluted with water to obtain a mixture of 10% acetone and 100 ppm of Triton X-155 in water. Further dilution of this stock solution as required in a test was done by using Triton X-155 at 100 ppm in water so that a constant ratio of the surfactant was maintained at all levels. Where emulsifiable oil was used in the treatments, the solutions were prepared in such a way that the final solutions contained 0.06% v/v of the oil.
# (§2) Leaves of Sieva bean plants grown from seeds planted 14-21 days earlier were used in all the tests. Twospotted spider mites (Tetranychus urticae) were cultured continuously on sieva bean plants growing in an insectary under continuous lighting at 75° F.
# On day 0, eight leaves which had been infested with mites 24 hours earlier were dipped in the treatment solution. On Day 5, mortality was assessed on four of the leaves and on Day 12 on the remaining four leaves.
# [2] = system: citrus rust mites; experiment: Field experiment, citrus rust mite on pink grapefruit in Florida (Table XI); format: in vivo, Phyllocoptruta oleivora
# Experimental: Citrus (pink grapefruit) trees (which were 5-7 years old) infested with citrus rust mites (Phyllocoptrura oleivora) were sprayed using a hydraulic handgun at 250 psi. Each tree was sprayed until runoff.
# Each treatment consisted of three replicates. Thirty-three leaves from each tree were evaluated for percent leaf area not infested by mites. These evaluations were done before the application of treatments and 7 and 14 days after the application of treatments.
# [3] = system: 2-spotted spider mites; experiment: Residual activity on bean leaves against 2-spotted spider mites (Table X); format: in vivo; conditions: Tetranychus urticae
# Experimental: as §1, §2
# On Day 0, eight uninfested leaves were treated by immersion in the treatment solution. On Day 7, all the leaves were infested with a mixed population of mites. On Day 13, mortality was assessed on four of the leaves and on Day 19 on the remaining four leaves.
# [4] = 120 h, read-out: mortality, adults
# [5] = 288 h, read-out: mortality, adults
# [6] = 288 h, read-out: mortality, larvae
# [7] = 288 h, read-out: mortality, nymphs
# [8] = 144 h, read-out: mortality, adults
# [9] = 144 h, read-out: mortality, nymphs
structure (smiles),measurement,setting,value
"CC1=C[C@H]2C(=O)O[C@H]3C[C@@H](C/C=C(\C)C[C@@H](C)/C=C/C=C4\CO[C@H]([C@@H]1O)[C@@]42O)O[C@@]1(CC[C@H](C)[C@@H](C(C)C)O1)C3 [Milbemycin B-41D, 13-deoxy-22,23-dihydro avermectin B1b aglycone]",mortality at 0.015 ppm,[1]; [4],66%
same,mortality at 0.04 ppm,[1]; [4],79%
same,mortality at 0.06 ppm,[1]; [4],92%
same,mortality at 0.25 ppm,[1]; [4],100%
same,mortality at 0.015 ppm,[1]; [5],0%
same,mortality at 0.04 ppm,[1]; [5],0%
same,mortality at 0.06 ppm,[1]; [5],38%
same,mortality at 0.25 ppm,[1]; [5],43%
same,mortality at 0.015 ppm,[1]; [6],0%
same,mortality at 0.04 ppm,[1]; [6],0%
same,mortality at 0.06 ppm,[1]; [6],91%
same,mortality at 0.25 ppm,[1]; [6],100%
same,mortality at 0.015 ppm,[1]; [7],0%
same,mortality at 0.04 ppm,[1]; [7],0%
same,mortality at 0.06 ppm,[1]; [7],56%
same,mortality at 0.25 ppm,[1]; [7],67%
same,potency in short term contact studies,[1]; avermectin B1a/B1b versus milbemycin B-41D,comparable potency
same,Percent control,"[2]; 0.04 oz ai/100 gal, 7 days after treatment",14%
same,Percent control,"[2]; 0.04 oz ai/100 gal, 14 days after treatment",13%
same,Percent control,"[2]; 0.2 oz ai/100 gal, 7 days after treatment",16%
same,Percent control,"[2]; 0.2 oz ai/100 gal, 14 days after treatment",18%
same,mortality at 0.25 ppm,[3]; [8],0%
same,mortality at 1 ppm,[3]; [8],0%
same,mortality at 4 ppm,[3]; [8],6%
same,mortality at 16 ppm,[3]; [8],50%
same,mortality at 0.25 ppm,[3]; [9],0%
same,mortality at 1 ppm,[3]; [9],0%
same,mortality at 4 ppm,[3]; [9],0%
same,mortality at 16 ppm,[3]; [9],57%
same,mortality at 0.25 ppm,[3]; [5],0%
same,mortality at 1 ppm,[3]; [5],0%
same,mortality at 4 ppm,[3]; [5],15%
same,mortality at 16 ppm,[3]; [5],88%
same,mortality at 0.25 ppm,[3]; [6],0%
same,mortality at 1 ppm,[3]; [6],0%
same,mortality at 4 ppm,[3]; [6],53%
same,mortality at 16 ppm,[3]; [6],100%
same,mortality at 0.25 ppm,[3]; [7],0%
same,mortality at 1 ppm,[3]; [7],0%
same,mortality at 4 ppm,[3]; [7],2%
same,mortality at 16 ppm,[3]; [7],78%

# Reference: patent US4560677A, “Synergistic avermectin combination for treating plant pests” (Merck & Co., Inc., priority 1984, dated 1985)
